Reference: US4341893A, “Quinazoline derivatives” (Synthelabo, priority 1976, dated 1982)

Legend:
[1] = LD 50 rat (Table II); conditions: in vivo
[2] = system: spontaneously hypertensive male rats (Okamoto strain); experiment: Anti-hypertensive effect in spontaneously hypertensive rats, systolic pressure; format: in vivo; conditions: 10 mg/kg perorally, spontaneously hypertensive rat
Description: Experiments were carried out on spontaneously hypertensive male rats (Okamoto strain), which were at least 14 weeks old. The systolic pressure was measured according to the technique described by Gerold and Tschirky (Arzneim.-Forsch. 1968, 18, 1285). The compounds were administered orally at a dose of 1 or 10 mg/kg.
Table II collects together the results obtained which are expressed in percent variation of the initial pressure, 2 hours, 4 hours and 24 hours after administration of the compound (I).

SMILES | LD50 ([1]; ip / intraperitoneally) [mg/kg] | % variation of the pressure after 2 hours [2] [%] | % variation of the pressure after 4 hours [2] [%] | % variation of the pressure after 24 hours [2] [%] | LD50 ([1]; po, perorally) [mg/kg]
COc1cc2nc(N3CCC(C(=O)c4ccc5c(c4)OCO5)CC3)nc(N)c2cc1OC [Compound 1, 4-Amino-6,7-dimethoxy-2-[4-(3,4-methylenedioxybenzoyl)piperidino]-quinazoline] | > 500 | -30 | -32 | -37 | 
COc1cc2nc(N3CCC(C(=O)c4ccccc4)CC3)nc(N)c2cc1OC [Compound 2] | > 500 | -43 | -32 | -40 | 
COc1cccc(C(=O)C2CCN(c3nc(N)c4cc(OC)c(OC)cc4n3)CC2)c1 [Compound 3, 4-Amino-6,7-dimethoxy-2-[4-(3-methoxybenzoyl)-piperidino]-quinazoline] | ~500 | -32 | -23 |  | 
COc1cc2nc(N3CCC(C(=O)c4cccs4)CC3)nc(N)c2cc1OC [Compound 6] | > 500 | -27 | -22 | -2 | 
COc1cc2nc(N3CCC(C(=O)c4nnc(SC)o4)CC3)nc(N)c2cc1OC [Compound 7, 4-amino-6,7-dimethoxy-2-[4-(5-methylthio-1,3,4-oxadiazole-2-carbonyl)-piperidino]-quinazoline] |  | -24 | -20 | -2 | > 500
COc1cc2nc(N(C)CCCN(C)C(=O)c3ccccc3)nc(N)c2cc1OC [Compound 10, N1-(4-amino-6,7-dimethoxy-quinazolinyl-2)-N2-benzoyl-N1 N2-dimethyl-propylenediamine] |  | -23 | -15 | -4 | > 500
COc1cc2nc(NCCCN(C)C(=O)c3ccccc3)nc(N)c2cc1OC [Compound 12, N1-(4-amino-6,7-dimethoxy-quinazolinyl-2)-N2-benzoyl-N2-methyl-propylenediamine] | ~400 | -31 | -23 |  | 
